Where a name gives a salt, the structure may show the parent alone.
How the values were obtained:
[1] = tested on: iNOS; assay: % inhibition of iNOS at 100 μM; format: biochemical
Procedure: (§1) Citrulline Assay for Nitric Oxide Synthase Nitric oxide synthase activity was measured by monitoring the conversion of L-[2,3-3H]-arginine to L-[2,3-3H]-citrulline (1,2). Human inducible NOS (hiNOS), human endothelial constitutive NOS (hecNOS) and human neuronal constitutive NOS (hncNOS) were each cloned from RNA extracted from human tissue. The recombinant enzymes were expressed in insect cells using a baculovirus vector. Enzyme activity was isolated from cell extracts and partially purified by DEAE-Sepharose chromatography (2). Mouse inducible NOS (miNOS) was prepared from an extract of LPS-treated mouse RAW 264.7 cells and rat brain constitutive NOS (rcNOS) was prepared from an extract of rat cerebellum. Both preparations were partially purified by DEAE-Sepharose chromatography (2). Enzyme and inhibitors were added to give a volume of 50 μL in 50 mM Tris (pH 7.6) and the reaction initiated by the addition of 50 μL of a solution containing 50 mM Tris (pH 7.6), 2.0 mg/mL bovine serum albumin, 2.0 mM DTT, 4.0 mM CaCl2, 20 μM FAD, 100 μM tetrahydrobiopterin, 0.4-2.0 mM NADPH and 60 μM L-arginine containing 0.9 μCi of L-[2,3-3H]-arginine. For constitutive NOS, calmodulin was included at a final concentration of 40-100 nM. Following incubation at 37° C. for 15 minutes, the reaction was terminated by addition of 300 μL cold buffer containing 10 mM EGTA, 100 mM HEPES (pH5.5) and 1.0 mM L-citrulline. The [3H]-citrulline was separated by chromatography on Dowex 50W X-8 cation exchange resin and radioactivity quantified with a liquid scintillation counter.

[2] = molecular target: T1, Human inducible NOS (hiNOS) (Homo sapiens, UniProt P35228); assay: Citrulline Assay for Nitric Oxide Synthase, hiNOS; format: biochemical
T1 construct: made in house; host or cells: insect cells, baculovirus vector
Procedure: (§2) Citrulline Assay for Nitric Oxide Synthase
as §1, with “Nitric” for “Citrulline Assay for Nitric Oxide Synthase Nitric”

[3] = molecular target: T2, human neuronal constitutive NOS (hncNOS) (Homo sapiens, UniProt P29475); assay: Citrulline Assay for Nitric Oxide Synthase, hncNOS; format: biochemical
T2 construct: made in house; host or cells: insect cells, baculovirus vector
Procedure: as §2
as §1, with “Nitric” for “Citrulline Assay for Nitric Oxide Synthase Nitric”

[4] = molecular target: T3, RAW cell i-NOS (Mus musculus, UniProt P29477); assay: Raw Cell Nitrite Assay; format: cell-based; conditions: RAW 264.7 cells, LPS induced, L-arginine 30 μM
T3 construct: grown overnight (17 h) in the presence of LPS to induce NOS; endogenous in cells; host or cells: RAW 264.7 cells, LPS-induced
Procedure: RAW 264.7 cells are plated to confluency on a 96-well tissue culture plate grown overnight (17 h) in the presence of LPS to induce NOS. A row of 3-6 wells are left untreated and served as controls for subtraction of nonspecific background. The media is removed from each well and the cells are washed twice with Krebs-Ringers-Hepes (25 mM, pH 7.4) with 2 mg/ml glucose. The cells are then placed on ice and incubated with 50 μL of buffer containing L-arginine (30 μM) +/-inhibitors for 1 h. The assay is initiated by warming the plate to 37° C. in a water bath for 1 h. Production of nitrite by intracellular iNOS is linear with time. To terminate the cellular assay, the plate of cells is placed on ice and the nitrite-containing buffer removed and analyzed for nitrite using a previously published fluorescent determination for nitrite. All values are the average of triplicate wells and are compared to a background-subtracted induced set of cells (100% value).

[5] = molecular target: T4, human endothelial constitutive NOS (hecNOS) (Homo sapiens, UniProt P29474); assay: Citrulline Assay for Nitric Oxide Synthase, hecNOS; format: biochemical
T4 construct: made in house; host or cells: insect cells, baculovirus vector
Procedure: as §2
as §1, with “Nitric” for “Citrulline Assay for Nitric Oxide Synthase Nitric”

[6] = tested on: constitutive and the inducible NO synthase; conditions: constitutive vs inducible NO synthase; cited from earlier work

In the case of `CC(=N)NCCCC[C@H](N)C(C)=O` [Example 14, N-(5S-amino-6-oxoheptyl)ethanimidamide, dihydrochloride], the “% inhibiton iNOS at 100 μM (symbol)” value [1] is reported as “* (At 100 μM dose, response was not seen.)”.
`CC(=N)NCCCC[C@H](N)C(O)CO` (single isomer, unassigned) [Example 3B, N-(5S-amino-6,7-dihydroxyheptyl)ethanimidamide, dihydrochloride] gave an IC50 [2] of 12.3 µM, an IC50 [3] of 150 µM and an IC50 [4] of 80 µM.
With `CC(=N)NCCCC[C@H](N)C(COC(C)=O)OC(C)=O` (stereo partly drawn) [Example 18, N-(6,7-diacetyloxy-5S-aminoheptyl)ethanimidamide, hydrochloride monohydrate] the “% inhibiton iNOS at 100 μM” value [1] was 7%.
In the case of `CC(=N)NCCCC[C@H](N)C(O)CO` (single isomer, unassigned) [Example 3A, N-(5S-amino-6,7-dihydroxyheptyl)ethanimidamide, dihydrochloride], the “% inhibiton iNOS at 100 μM” value [1] is reported as 53.4%.
For `CC(=N)NCCC[C@H](N)CC(=O)O` [Example 2, 3S-amino-6-[(1-iminoethyl)amino]hexanoic Acid], the “% inhibiton iNOS at 100 μM (symbol)” value [1] was “* (At 100 μM dose, response was not seen.)”.
With `CC(=N)NCCCC[C@H](N)C(O)C(C)O` (single isomer, unassigned) [Example 16B, N-(5S-amino-6,7-dihydroxyoctyl) ethanimidamide, dihydrochloride hydrate] the IC50 [2] was 76.8 µM, the IC50 [5] was 5430 µM and the IC50 [3] was 670 µM. The IC50 [4] was > 100 µM.
In the case of `CC(=N)NCCCC[C@H](N)C(O)c1ccccc1` (single isomer, unassigned) [Example 11B, α-[1-amino-5-[(1-iminoethyl)amino]pentyl]benzenemethanol hydrochloride dihydrate], the “% inhibiton iNOS at 100 μM” value [1] is reported as 4.6%.
In the case of `CCOC(=O)C[C@@H](N)CCCCNC(C)=N` [Example 1d, Ethyl 3S-amino-7-[(1-iminoethyl)amino]heptanoate], the “% inhibiton iNOS at 100 μM” value [1] is reported as 35%.
For `CC(=N)NCCCC[C@H](N)C(=O)NO` [Example 50, 2S-amino-N-hydroxy-6-[(1-iminoethyl)amino]hexanamide, hydrochloride], the “% inhibiton iNOS at 100 μM” value [1] was 40.6%.
For `CCOC(=O)C[C@@H](N)CCCNC(C)=N` [Example 2d], the “% inhibiton iNOS at 100 μM” value [1] was 5%.
For `CC(=N)NCCCC[C@H](N)c1nnn[nH]1` [Example 41, N-[5S-amino-5-(1H-tetrazol-5-yl)pentyl]ethanimidamide, dihydrochloride], the “% inhibiton iNOS at 100 μM” value [1] was 28.5%.
With `CC(=N)NCCCC(C)N` (stereo not drawn) [Example 4, Ni-(1-iminoethyl)-1,4-pentanediamine, dihydrochloride] the “% inhibiton iNOS at 100 μM” value [1] was 33%.
Work on `CC(=N)NCCCC[C@H](N)C(C)(O)CO` (single isomer, unassigned) [Example 15B, N-(5S-amino-6,7-dihydroxy-6-methylheptyl)ethanimidamide, hydrochloride dihydrate] yielded an IC50 [2] of 187 µM, an IC50 [5] of 6590 µM and an IC50 [3] of 441 µM.
`CC(=N)NCCCC[C@H](N)CC(=O)O` [Example 1, 3S-amino-7-[(1-iminoethyl)amino]heptanoic Acid] gave an IC50 [2] of 61 µM, an IC50 [5] of 1990 µM and an IC50 [3] of 898 µM. It also gave an IC50 [4] of 300 µM.
In the case of `CC(=N)NCCCC[C@H](N)c1ncc(C)o1` [Example 49, N-[5-amino-5-(5-methyloxazol-2-yl)pentyl]ethanimidamide, hydrochloride hydrate], the “% inhibiton iNOS at 100 μM” value [1] is reported as 19.4%.
In the case of `CC(=N)NCCCC[C@H](N)C(O)COC(C)=O` (stereo partly drawn) [Example 19, N-(5S-amino-6-hydroxy-7-acetoxyheptyl)ethanimidamide, hydrochloride monohydrate], the “% inhibiton iNOS at 100 μM” value [1] is reported as 54%.
For `CC(=N)NCCCC[C@H](N)C(O)c1ccccc1` (single isomer, unassigned) [Example 11A, α-[1-amino-5-[(1-iminoethyl)amino]pentyl]benzenemethanol hydrochloride dihydrate], the “% inhibiton iNOS at 100 μM (symbol)” value [1] was “* (At 100 μM dose, response was not seen.)”.
In the case of `CCC(N)CCCCNC(C)=N` (stereo not drawn) [Example 5, N1-(1-iminoethyl) -1,5-heptanediamine], the “% inhibiton iNOS at 100 μM” value [1] is reported as 27%.
With `CC(=N)NCCCC[C@H](N)C(C)O` (stereo partly drawn) [Example 40B, N-(5S-amino-6-hydroxyheptyl)ethanimidamide, dihydrochloride dihydrate] the “% inhibiton iNOS at 100 μM” value [1] was 14.5%.
In the case of `CC(=N)NCCCC[C@H](N)C(C)O` (single isomer, unassigned) [Example 40A, N-(5S-amino-6-hydroxyheptyl)ethanimidamide, dihydrochloride dihydrate], the “% inhibiton iNOS at 100 μM” value [1] is reported as 32.6%.
In the case of `CC(=N)Nc1ccc(C(N)CC(=O)O)cc1.Cl.Cl.O` (stereo not drawn) [Example 10, β-amino-4-[(1-iminoethyl)amino]benzenepropanoic acid, dihydrochloride hydrate], the “% inhibiton iNOS at 100 μM” value [1] is reported as 3.4%.
With `CC(=N)NCCCC[C@H](N)C(=O)c1cccs1` [Example 12, N-[5S-amino-6-oxo-6-(2-thienyl)hexyl]ethanimidamide, hydrate] the “% inhibiton iNOS at 100 μM (symbol)” value [1] was “* (At 100 μM dose, response was not seen.)”.
For `CC(=N)NCCCC[C@H](N)CO` [Example 48, N-(5S-amino-6-hydroxyhexyl)ethanimidamide], the “% inhibiton iNOS at 100 μM” value [1] was 40.6%.
`CC(=N)NCCCC[C@H](N)C(C)(O)CO` (single isomer, unassigned) [Example 15A, N-(5S-amino-6,7-dihydroxy-6-methylheptyl)ethanimidamide, hydrochloride dihydrate] showed an IC50 [2] of 9.3 µM, an IC50 [5] of 2350 µM and an IC50 [3] of 99.6 µM. For the same molecule, the IC50 [4] was 57.3 µM.
In the case of `CNC(=N)NCCC[C@H](N)C(=O)O` [L-NMMA, L-N-monomethyl-arginine], the “selectivity as NO synthase inhibitor” value [6] is listed as “non-selective”.
In the case of `COC(=O)CC(N)c1ccc(NC(C)=N)cc1` (stereo not drawn) [Example 10f], the “% inhibiton iNOS at 100 μM” value [1] is reported as 7.7%.

— US6143790A, “L-N^6 -(1-iminoethyl)lysine derivatives useful as nitric oxide synthase inhibitors” (G.D. Searle & Co., priority 1996, dated 2000)
